Data from patent US8202868B2, “4-piperazinyl-pyrimidine compounds suitable for treating disorders that respond to modulation of the dopamine D3 receptor” (Abbott GmbH & Co. KG, priority 2004, dated 2012).
Structures can show the parent of a compound that is named as a salt. Where two headings read alike, the source gives them in different places.

How the values were obtained:
[1] = molecular target: T1, human dopamine D3 receptors (Homo sapiens, UniProt P35462); experiment: Dopamine D3 receptor binding, [125I]-iodosulpride displacement; details: for Ki: membranes of HEK-293 cells, 0.1 nM [125I]-iodosulpride, 25° C., 60 minutes; for Ki(D2)/Ki(D3): selectivity ratio of receptor binding constants
T1 construct: expressed in transfected cells; host or cells: HEK-293
Experimental: (§1) The substance to be tested was either dissolved in methanol/Chremophor® (BASF-AG) or in dimethyl sulfoxide and then diluted with water to the desired concentration.
(§2) Each assay mixture was run in triplicate.
The incubation buffer contained 50 mM tris, 120 mM NaCl, 5 mM KCl, 2 mM CaCl2, 2 mM MgCl2 and 0.1% bovine serum albumin, 10 μM quinolone and 0.1% ascorbic acid (prepared fresh daily). The buffer was adjusted to pH 7.4 with HCl.
(§3) After having been incubated at 25° C. for 60 minutes, the assay mixtures were filtered through a Whatman GF/B glass fiber filter under vacuum using a cell collecting device. The filters were transferred to scintillation viols using a filter transfer system. After 4 ml of Ultima Gold® (Packard) have been added, the samples were shaken for one hour and the radioactivity was then counted in a Beta-Counter (Packard, Tricarb 2000 or 2200CA). The cpm values were converted into dpm using a standard quench series and the program belonging to the instrument.
(§4) The inhibition curves were analyzed by means of iterative nonlinear regression analysis using the Statistical Analysis System (SAS) which is similar to the “LIGAND” program described by Munson and Rodbard.

[2] = molecular target: T2, human dopamine D2L receptors (long isoform) (Homo sapiens, UniProt P14416); experiment: Dopamine D2L receptor binding, [125I] iodospiperone displacement
T2 construct: expressed in transfected cells; host or cells: HEK-293
Experimental: as §1, §2
The incubation buffer contained 50 mM tris, 120 mM NaCl, 5 mM KCl, 2 mM CaCl2, 2 mM MgCl2 and 0.1% bovine serum albumin. The buffer was adjusted to pH 7.4 with HCl.
as §3, §4

[3] = membranes of HEK-293 cells, 0.01 nM [125I] iodospiperone, 25° C., 60 minutes, read-out: Ki(D2)

T2 sequence (P14416 whole entry, canonical isoform): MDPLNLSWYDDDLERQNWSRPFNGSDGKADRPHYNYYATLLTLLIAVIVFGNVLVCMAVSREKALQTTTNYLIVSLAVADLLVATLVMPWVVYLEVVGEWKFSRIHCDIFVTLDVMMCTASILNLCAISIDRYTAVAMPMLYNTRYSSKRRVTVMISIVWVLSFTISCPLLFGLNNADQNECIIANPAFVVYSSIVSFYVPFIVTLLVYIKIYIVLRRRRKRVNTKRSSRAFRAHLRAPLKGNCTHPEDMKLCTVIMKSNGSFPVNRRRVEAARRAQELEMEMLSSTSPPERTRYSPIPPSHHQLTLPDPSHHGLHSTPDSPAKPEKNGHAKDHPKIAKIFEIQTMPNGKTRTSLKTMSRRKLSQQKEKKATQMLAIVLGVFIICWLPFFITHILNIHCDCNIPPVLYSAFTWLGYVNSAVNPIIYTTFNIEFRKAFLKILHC
T1 sequence (P35462 whole entry): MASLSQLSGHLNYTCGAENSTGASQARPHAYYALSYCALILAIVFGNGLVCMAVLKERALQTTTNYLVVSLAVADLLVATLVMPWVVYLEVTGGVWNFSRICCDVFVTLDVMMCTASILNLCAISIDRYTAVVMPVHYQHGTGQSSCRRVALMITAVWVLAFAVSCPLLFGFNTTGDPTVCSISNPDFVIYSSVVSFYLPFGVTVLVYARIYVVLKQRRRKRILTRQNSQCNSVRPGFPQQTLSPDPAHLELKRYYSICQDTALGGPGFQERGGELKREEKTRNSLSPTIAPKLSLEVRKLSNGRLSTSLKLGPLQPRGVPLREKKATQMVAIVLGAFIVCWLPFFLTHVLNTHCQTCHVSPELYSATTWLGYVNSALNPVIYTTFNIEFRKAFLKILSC

| Ki [1] | Ki(D2)/Ki(D3) [1] | Ki [2, 3] | Compound | Ki [2] |
| --- | --- | --- | --- | --- |
| 0.0019 µM | 253 | 0.484 µM | Cl.Cn1c(SCCCN2CCN(c3cc(C4CC4)nc(C(C)(C)C)n3)CC2)nnc1C(F)(F)F [Example 47, 2-tert-Butyl-4-{4-[3-(4-methyl-5-trifluoromethyl-4H-[1,2,4]triazol-3-ylsulfanyl)-propyl]-piperazin-1-yl}-6-cyclopropyl-pyrimidine hydrochloride] | – |
| 0.0013 µM | 314 | 0.405 µM | Cn1cnnc1SCCCN1CCN(c2cc(C3CCC3)nc(C(C)(C)C)n2)CC1 [Example 41, 2-tert-Butyl-4-{4-[3-(4-methyl-4H-[1,2,4]triazol-3-ylsulfanyl)-propyl]-piperazin-1-yl}-6-cyclobutylpyrimidine] | – |
| 0.0016 µM | 92 | 0.147 µM | Cn1c(OCCCN2CCN(c3cc(C4CCC4)nc(C(C)(C)C)n3)CC2)nnc1-c1ccccc1 [Example 64, 2-tert-Butyl-4-cyclobutyl-6-{4-[3-(4-methyl-5-phenyl-4H-[1,2,4]triazol-3-yloxy)-propyl]-piperazin-1-yl}-pyrimidine] | – |
| 0.0026 µM | 40 | 0.104 µM | Cn1c(OCCCN2CCN(c3cc(C4(C)CC4)nc(C(C)(C)C)n3)CC2)nnc1-c1ccccc1 [Example 63, 2-tert-Butyl-4-(1-methyl-cyclopropyl)-6-{4-[3-(4-methyl-5-phenyl-4H-[1,2,4]triazol-3-yloxy)-propyl]-piperazin-1-yl}-pyrimidine] | – |
| 0.00547 µM | 296 | 1.61 µM | Cn1c(SCCCN2CCN(c3cc(C(C)(C)C)nc(C4CC4)n3)CC2)nnc1-c1cnccn1 [Example 57, 2-cyclopropyl-4-{4-[3-(5-pyrazin-4-methyl-4H-[1,2,4]triazol-3-ylsulfanyl)-propyl]-piperazin-1-yl}6-tert-butyl-pyrimidine hydrochloride] | – |
| 0.0011 µM | 71 | 0.077 µM | CC(C)(C)c1nc(C2CCC2)cc(N2CCN(CCCCc3nccc(O)n3)CC2)n1 [Example 34, 2-{4-[4-(2-tert-Butyl-6-cyclobutyl-pyrimidin-4-yl)-piperazin-1-yl]-butyl}-pyrimidin-4-ol] | – |
| 0.0009 µM | 150 | 0.137 µM | CC(C)(C)c1nc(C2CCC2)cc(N2CCN(CCCCNC(=O)c3ccncc3)CC2)n1.Cl [Example 11, N-{4-[4-(2-tert-Butyl-6-cyclobutyl-pyrimidin-4-yl)-piperazin-1-yl]-butyl}-isonicotinamide hydrochloride] | – |
| 0.0071 µM | 51 | 0.359 µM | CC(C)(C)c1nc(C2CC2)cc(N2CCN(CCCOc3nccc(O)n3)CC2)n1 [Example 37, 2-{3-[4-(2-tert-Butyl-6-cyclopropyl-pyrimidin-4-yl)-piperazin-1-yl]-propoxy}-pyrimidin-4-ol] | – |
| 0.0005 µM | 163 | 0.087 µM | CC(C)(C)c1nc(C2CCC2)cc(N2CCN(CCCCNC(=O)c3ccc(F)cc3)CC2)n1.Cl [Example 10, N-{4-[4-(2-tert-Butyl-6-cyclobutyl-pyrimidin-4-yl)-piperazin-1-yl]-butyl}-4-fluoro-benzamide hydrochloride] | – |
| 0.001 µM | 121 | 0.115 µM | CC(C)(C)c1nc(C2CCC2)cc(N2CCN(CCCCNC(=O)c3cccnc3)CC2)n1 [Example 12, N-{4-[4-(2-tert-Butyl-6-cyclobutyl-pyrimidin-4-yl)-piperazin-1-yl]-butyl}-nicotinamide] | – |
| 0.00064 µM | 124 | 0.08 µM | Cc1nnc(SCCCN2CCN(c3cc(C4(C)CC4)nc(C(C)(C)C)n3)CC2)n1C [Example 54, 2-tert-butyl-4-{4-[3-(4-methyl-5-methyl-4H-[1,2,4]triazol-3-ylsulfanyl)-propyl]piperazin-1-yl}-6-(1-methyl)cyclopropyl-pyrimidine] | – |
| 0.0048 µM | 70 | 0.337 µM | CC(C)(C)c1nc(C2CCC2)cc(N2CCN(CCCOc3nccc(O)n3)CC2)n1 [Example 26, 2-{3-[4-(2-tert-Butyl-6-cyclobutyl-pyrimidin-4-yl)-piperazin-1-yl]-propoxy}-pyrimidin-4-ol] | – |
| 0.00047 µM | 109 | 0.0512 µM | Cn1c(SCCCN2CCN(c3cc(C4CC4)nc(C(C)(C)C)n3)CC2)nnc1-c1cnccn1 [Example 56, 2-tert-butyl-4-{4-[3-(5-pyrazin-4-methyl-4H-[1,2,4]triazol-3-ylsulfanyl)-propyl]-piperazin-1-yl}6-cyclopropyl-pyrimidine hydrochloride] | – |
| 0.0012 µM | 50 | 0.058 µM | Cn1cnnc1SCCCN1CCN(c2cc(C3(C)CC3)nc(C(C)(C)C)n2)CC1 [Example 53, 2-tert-butyl-4-{4-[3-(4-methyl-4H-[1,2,4]triazol-3-ylsulfanyl)-propyl]-piperazin-1-yl}-6-(1-methyl)cyclopropyl-pyrimidine] | – |
| 0.0112 µM | 82 | 0.926 µM | C[C@@H](COc1nccc(O)n1)CN1CCN(c2cc(C3CCC3)nc(C(C)(C)C)n2)CC1 [Example 52] | – |
| 0.00096 µM | 106 | 0.102 µM | Cl.Cn1cccc1-c1nnc(SCCCN2CCN(c3cc(C4CCC4)nc(C(C)(C)C)n3)CC2)n1C [Example 66, 2-tert-Butyl-4-cyclobutyl-6-(4-{3-[4-methyl-5-(1-methyl-1H-pyrrol-2-yl)-4H-[1,2,4]triazol-3-ylsulfanyl]-propyl}-piperazin-1-yl)-pyrimidine hydrochloride] | – |
| 0.0038 µM | 154 | 0.587 µM | Cl.Cn1nnnc1SCCCN1CCN(c2cc(C3CC3)nc(C(C)(C)C)n2)CC1 [Example 35, 2-tert-Butyl-4-cyclopropyl-6-{4-[3-(1-methyl-1H-tetrazol-5-ylsulfanyl)-propyl]-piperazin-1-yl}-pyrimidine hydrochloride] | – |
| 0.0012 µM | 93 | 0.112 µM | CC(C)(C)c1nc(C2CCC2)cc(N2CCN(CCCOc3ccnc(O)n3)CC2)n1 [Example 24, 4-{3-[4-(2-tert-Butyl-6-cyclobutyl-pyrimidin-4-yl)-piperazin-1-yl]-propoxy}-pyrimidin-2-ol] | – |

| Compound | Ki [1] | Ki(D2)/Ki(D3) [1] | Ki [2, 3] | Ki [2] |
| --- | --- | --- | --- | --- |
| 2-tert-Butyl-4-cyclobutyl-6-{4-[3-(1-methyl-1H-tetrazol-5-ylsulfanyl)-propyl]-piperazin-1-yl}-pyrimidine [Example 9] | 0.0041 µM | 106 | 0.432 µM | – |
| Cn1c(SCCCN2CCN(c3cc(C4CCC4)nc(C(C)(C)C)n3)CC2)nnc1C1CC1.O=C(O)/C=C/C(=O)O [Example 44, 2-tert-Butyl-4-{4-[3-(4-methyl-5-cyclopropyl-4H-[1,2,4]triazol-3-ylsulfanyl)-propyl]-piperazin-1-yl}-6-cyclobutyl-pyrimidine fumarate] | 0.0006 µM | 250 | 0.142 µM | – |
| CC(C)(C)c1nc(C2CCC2)cc(N2CCN(CCCSc3nncs3)CC2)n1 [Example 1, 2-tert-Butyl-4-cyclobutyl-6-{4-[3-([1,3,4]thiadiazol-2-ylsulfanyl)-pronyl]-piperazin-1-yl}-pyrimidine] | 0.0009 µM | 54 | – | 0.049 µM |
